# Data from PubChem BioAssay (NCI).
#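 In this assay, cells in 96-well plates receive the compound at five concentrations for 48 hours. Endpoints are linearly interpolated between the surrounding concentrations. GI50 is the concentration that inhibits growth by half. TGI denotes the concentration required for complete inhibition of growth.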
# Tests used:
# Experiment in all cases: NCI tumour cell line growth inhibition, 48 h
# [1] = tested on: PC-3 prostate
# [2] = tested on: MDA-MB-231 breast
# [3] = tested on: UO-31 renal
# [4] = tested on: SN12C renal
# [5] = tested on: OVCAR-3 ovarian
# [6] = tested on: LOX IMVI melanoma
# [7] = tested on: HL-60(TB) leukemia
# [8] = tested on: HOP-92 NSCLC
# [9] = tested on: SK-MEL-2 melanoma
# [10] = tested on: SR leukemia
# [11] = tested on: MALME-3M melanoma
# [12] = tested on: HCC-2998 colon
# [13] = tested on: DU-145 prostate
# [14] = tested on: KM12 colon
# [15] = tested on: HCT-15 colon
# [16] = tested on: A498 renal
# [17] = tested on: TK-10 renal
# [18] = tested on: HCT-116 colon
# [19] = tested on: U251 CNS
# [20] = tested on: OVCAR-8 ovarian
# [21] = tested on: UACC-257 melanoma
# [22] = tested on: SF-268 CNS
# [23] = tested on: 786-0 renal
# [24] = tested on: NCI/ADR-RES ovarian
# [25] = tested on: SNB-75 CNS
# [26] = tested on: CAKI-1 renal
# [27] = tested on: SNB-19 CNS
# [28] = tested on: NCI-H522 lung
# [29] = tested on: M14 melanoma
# [30] = tested on: MCF7 breast
# [31] = tested on: HT29 colon
# [32] = tested on: SF-539 CNS
# [33] = tested on: SK-MEL-5 melanoma
# [34] = tested on: COLO 205 colon
# [35] = tested on: MDA-MB-435
# [36] = tested on: CCRF-CEM leukemia
# [37] = tested on: RXF 393 renal
# [38] = tested on: OVCAR-5 ovarian
# [39] = tested on: T-47D breast
# [40] = tested on: OVCAR-4 ovarian
# [41] = tested on: A549 NSCLC
# [42] = tested on: HOP-62 NSCLC
# [43] = tested on: K-562 leukemia
# [44] = tested on: BT-549 breast
# [45] = tested on: SK-MEL-28 melanoma
# [46] = tested on: NCI-H23 lung
# [47] = tested on: UACC-62 melanoma
# [48] = tested on: EKVX NSCLC
# [49] = tested on: SK-OV-3 ovarian
# [50] = tested on: RPMI-8226 leukemia
# [51] = tested on: NCI-H226 lung
# [52] = tested on: ACHN renal
# [53] = tested on: NCI-H460 lung
# [54] = tested on: SW-620 colon
# [55] = tested on: IGROV1 ovarian
# [56] = tested on: MOLT-4 leukemia
# [57] = tested on: HS 578T breast
# [58] = tested on: SF-295 CNS
compound,measurement,setting,value
C/C(=N\NC(=O)c1ccc(C(C)(C)C)cc1)c1ccc(O)cc1O,GI50,[1],1.08 µM
same,TGI,[1],> 100 µM
same,GI50,[2],0.791 µM
same,TGI,[2],> 100 µM
same,GI50,[3],0.377 µM
same,TGI,[3],> 100 µM
same,GI50,[4],1.24 µM
same,TGI,[4],> 100 µM
same,GI50,[5],0.309 µM
same,TGI,[5],> 100 µM
same,GI50,[6],0.318 µM
same,TGI,[6],1.92 µM
same,GI50,[7],1.08 µM
same,TGI,[7],11.1 µM
same,GI50,[8],4.22 µM
same,TGI,[8],> 100 µM
same,GI50,[9],2.38 µM
same,TGI,[9],> 100 µM
same,GI50,[10],0.379 µM
same,TGI,[10],> 62.2 µM
same,GI50,[11],1.14 µM
same,TGI,[11],45.2 µM
same,GI50,[12],0.638 µM
same,TGI,[12],61.4 µM
same,GI50,[13],0.705 µM
same,TGI,[13],> 100 µM
same,GI50,[14],0.511 µM
same,TGI,[14],> 100 µM
same,GI50,[15],0.396 µM
same,TGI,[15],> 100 µM
same,GI50,[16],1.38 µM
same,TGI,[16],> 100 µM
same,GI50,[17],0.886 µM
same,TGI,[17],> 100 µM
same,GI50,[18],0.298 µM
same,TGI,[18],> 100 µM
same,GI50,[19],0.615 µM
same,TGI,[19],> 100 µM
same,GI50,[20],0.673 µM
same,TGI,[20],> 100 µM
same,GI50,[21],1.51 µM
same,TGI,[21],> 100 µM
same,GI50,[22],0.528 µM
same,TGI,[22],> 100 µM
same,GI50,[23],0.985 µM
same,TGI,[23],13.5 µM
same,GI50,[24],0.416 µM
same,TGI,[24],> 100 µM
same,GI50,[25],1.27 µM
same,TGI,[25],17.9 µM
same,GI50,[26],0.392 µM
same,TGI,[26],4.72 µM
same,GI50,[27],2.36 µM
same,TGI,[27],> 100 µM
same,GI50,[28],1.89 µM
same,TGI,[28],> 100 µM
same,GI50,[29],0.532 µM
same,TGI,[29],7.34 µM
same,GI50,[30],0.628 µM
same,TGI,[30],> 100 µM
same,GI50,[31],0.689 µM
same,TGI,[31],14.2 µM
same,GI50,[32],0.648 µM
same,TGI,[32],> 70.4 µM
same,GI50,[33],1.47 µM
same,TGI,[33],4.74 µM
same,GI50,[34],0.386 µM
same,TGI,[34],> 34.1 µM
same,GI50,[35],0.81 µM
same,TGI,[35],> 100 µM
same,GI50,[36],0.331 µM
same,TGI,[36],> 30.9 µM
same,GI50,[37],2.11 µM
same,TGI,[37],10.2 µM
same,GI50,[38],0.862 µM
same,TGI,[38],> 100 µM
same,GI50,[39],1.07 µM
same,TGI,[39],> 100 µM
same,GI50,[40],0.306 µM
same,GI50,[41],0.751 µM
same,TGI,[41],> 100 µM
same,GI50,[42],0.484 µM
same,TGI,[42],> 100 µM
same,GI50,[43],0.568 µM
same,TGI,[43],> 100 µM
same,GI50,[44],1.83 µM
same,TGI,[44],> 65.8 µM
same,GI50,[45],1.67 µM
same,TGI,[45],> 100 µM
same,GI50,[46],1.18 µM
same,TGI,[46],> 100 µM
same,GI50,[47],0.671 µM
same,TGI,[47],> 100 µM
same,GI50,[48],0.442 µM
same,TGI,[48],> 100 µM
same,GI50,[49],1.06 µM
same,TGI,[49],> 100 µM
same,GI50,[50],0.763 µM
same,TGI,[50],> 59.9 µM
same,GI50,[51],0.843 µM
same,TGI,[51],14 µM
same,GI50,[52],0.491 µM
same,TGI,[52],> 100 µM
same,GI50,[53],0.347 µM
same,TGI,[53],10.3 µM
same,GI50,[54],0.602 µM
same,TGI,[54],> 100 µM
same,GI50,[55],0.572 µM
same,TGI,[55],> 100 µM
same,GI50,[56],0.344 µM
same,TGI,[56],> 100 µM
same,GI50,[57],3.26 µM
same,TGI,[57],> 100 µM
CS(=O)(=O)c1ccc(Oc2cc(F)cc(C#N)c2)c2c1[C@H](O)[C@H](F)[C@H]2F,GI50,[1],> 100 µM
same,TGI,[1],> 100 µM
same,GI50,[2],> 100 µM
same,TGI,[2],> 100 µM
same,GI50,[3],> 100 µM
same,TGI,[3],> 100 µM
same,GI50,[4],> 100 µM
same,TGI,[4],> 100 µM
same,GI50,[5],> 100 µM
same,TGI,[5],> 100 µM
same,GI50,[6],> 100 µM
same,TGI,[6],> 100 µM
same,GI50,[7],> 100 µM
same,TGI,[7],> 100 µM
same,GI50,[8],> 100 µM
same,TGI,[8],> 100 µM
same,GI50,[9],> 100 µM
same,TGI,[9],> 100 µM
same,GI50,[10],> 100 µM
same,TGI,[10],> 100 µM
same,GI50,[11],> 100 µM
same,TGI,[11],> 100 µM
same,GI50,[12],> 100 µM
same,TGI,[12],> 100 µM
same,GI50,[13],> 100 µM
same,TGI,[13],> 100 µM
same,GI50,[14],> 100 µM
same,TGI,[14],> 100 µM
same,GI50,[15],> 100 µM
same,TGI,[15],> 100 µM
same,GI50,[16],> 100 µM
same,TGI,[16],> 100 µM
same,GI50,[17],> 100 µM
same,TGI,[17],> 100 µM
same,GI50,[18],> 100 µM
same,TGI,[18],> 100 µM
same,GI50,[19],> 100 µM
same,TGI,[19],> 100 µM
same,GI50,[20],> 100 µM
same,TGI,[20],> 100 µM
same,GI50,[21],> 100 µM
same,TGI,[21],> 100 µM
same,GI50,[22],> 100 µM
same,TGI,[22],> 100 µM
same,GI50,[23],> 100 µM
same,TGI,[23],> 100 µM
same,GI50,[24],> 100 µM
same,TGI,[24],> 100 µM
same,GI50,[25],> 100 µM
same,TGI,[25],> 100 µM
same,GI50,[26],> 100 µM
same,TGI,[26],> 100 µM
same,GI50,[27],> 100 µM
same,TGI,[27],> 100 µM
same,GI50,[28],> 100 µM
same,TGI,[28],> 100 µM
same,GI50,[30],> 100 µM
same,TGI,[30],> 100 µM
same,GI50,[31],> 100 µM
same,TGI,[31],> 100 µM
same,GI50,[32],> 100 µM
same,TGI,[32],> 100 µM
same,GI50,[33],> 100 µM
same,TGI,[33],> 100 µM
same,GI50,[34],> 100 µM
same,TGI,[34],> 100 µM
same,GI50,[35],> 100 µM
same,TGI,[35],> 100 µM
same,GI50,[36],> 100 µM
same,TGI,[36],> 100 µM
same,GI50,[37],2.53 µM
same,TGI,[37],> 100 µM
same,GI50,[38],> 100 µM
same,TGI,[38],> 100 µM
same,GI50,[58],> 100 µM
same,TGI,[58],> 100 µM
same,GI50,[39],> 100 µM
same,TGI,[39],> 100 µM
same,GI50,[40],> 100 µM
same,TGI,[40],> 100 µM
same,GI50,[41],> 100 µM
same,TGI,[41],> 100 µM
same,GI50,[42],> 100 µM
same,TGI,[42],> 100 µM
same,GI50,[43],> 100 µM
same,TGI,[43],> 100 µM
same,GI50,[44],> 100 µM
same,TGI,[44],> 100 µM
same,GI50,[45],> 100 µM
same,TGI,[45],> 100 µM
same,GI50,[46],> 100 µM
same,TGI,[46],> 100 µM
same,GI50,[47],> 100 µM
same,TGI,[47],> 100 µM
same,GI50,[48],> 100 µM
same,TGI,[48],> 100 µM
same,GI50,[49],> 100 µM
same,TGI,[49],> 100 µM
same,GI50,[50],> 100 µM
same,TGI,[50],> 100 µM
same,GI50,[51],> 100 µM
same,TGI,[51],> 100 µM
same,GI50,[52],> 100 µM
same,TGI,[52],> 100 µM
same,GI50,[53],> 100 µM
same,TGI,[53],> 100 µM
same,GI50,[54],> 100 µM
same,TGI,[54],> 100 µM
same,GI50,[55],> 100 µM
same,TGI,[55],> 100 µM
same,GI50,[56],> 100 µM
same,TGI,[56],> 100 µM
same,GI50,[57],> 100 µM
same,TGI,[57],> 100 µM
